The record followed here is BindingDB's records for doi:10.1016/j.ejmech.2019.01.082 (Fudan University, 2019).

As a reminder, the IC50 is the midpoint of a concentration-inhibition curve.

The nature of the assay: Inverse agonist activity at RORgammat in mouse CD4 positive T cells assessed as inhibition of Th17 cell differentiation by measuring IL-17 release after 4 days by cellular staining based flow cytometry. A general note: In flow cytometry, cells or beads pass a laser one at a time.

`N#Cc1cccc(C(=O)Nc2ccc3c(c2)C(N2CCN(C(=O)C4CCCC4)CC2)CC3)c1` (centres undefined): the IC50 was 2660 nM. Turning to `N#Cc1cccc(C(=O)Nc2cccc3c2CCC3N2CCN(C(=O)C3CCCC3)CC2)c1` (centres undefined), the IC50 amounted to 1780 nM. Take `N#Cc1cccc(C(=O)Nc2ccc3c(c2)C(N2CC4CCC(C2)N4C(=O)C2CCCC2)CC3)c1` (centres undefined): the IC50 turned out to be 423 nM.

Take `N#Cc1cccc(C(=O)Nc2cccc3c2CCC3N2CC3CCC(C2)N3C(=O)C2CCCC2)c1` (centres undefined): the IC50 stood at 385 nM.
